Values of other authors in patent US20180071205A1, “Stable Vitamin C System” (priority 2014, published 2018).

Legend:
[1] = aqueous solutions; accelerated by alkalines, iron and copper; sodium salt at pH >6
[2] = normal water-based preparation

Question: What does the source list for O=C1O[C@H]([C@@H](O)CO)C(O)=C1O [L-ascorbic acid]?
Answer: stability to oxidation by air [1]: rapidly oxidized by air; pH [2]: around 2
